Entries after “also recorded” stand apart in the source; their conditions may differ. Counter-ions that a name gives are not always drawn. Like-named read-outs stand apart in the source and are kept apart here.

Data set [1] deals with AMP-activated protein kinase (AMPK). To be noted: HepG2 cells; cited from earlier work.
The subject of data set [2] is db/db mice. As to the kind of experiment: Acute effect of test compounds on plasma glucose levels in db/db mice. The data set is classed as in vivo. To be noted: for % Reduction in plasma glucose (acute): 0 hr vs 3 hr post single dose 300 mg/kg per oral; for % Reduction in plasma glucose (acute) / 3 Hr plasma glucose / 0 Hr plasma glucose: Mean ± SEM; for 3 Hr plasma glucose: 3 hrs post single dose 300 mg/kg per oral; for 0 Hr plasma glucose: 4 hrs fasted, before dosing, 300 mg/kg per oral group; for plasma glucose levels 3 hrs post dosing with single dose (in words): acute administration, 300 mg/kg, vs control group. The protocol:
(§1) Db/db mice were acclimatized to dosing and exposed to tail cut and r.o.p bleeding. Animals were grouped based on plasma glucose, triglyceride and cholesterol values. Acute effect of test compound on plasma glucose levels determined 3 hrs post dosing followed by administration of test compound for 21 days. After 14 days treatment, 4 hrs fasting plasma glucose levels were measured. After 21 days treatment, 4 hrs fasting plasma glucose levels were measured followed by test compound administration and measurement of plasma glucose levels 3 hrs post dosing.
(§2) Kits: Plasma glucose, cholesterol and triglyceride were measured using Dade Behring auto analyzer. Plasma insulin values measured using Rat/mouse insulin ELISA kit (Millipore, lot no 16006280). Tail cut method plasma glucose values measured using Contour TS glucometer strips (Lot WK8MD3E32A).
(§3) Compounds and Vehicle: All test-compounds were formulated in tween CMC (10% of 2.5% tween 80+90% of 0.25% CMC) and prepared daily about 1 hr before administration. Animals were dosed for 21 days through oral gavage at dose volume of 10 ml/kg body weight.
On the day of initiating study animals were fasted for 4 hrs and plasma glucose was measured with Glucometer by tail cut method. Animals were dosed with test compound/vehicle according to their body weight and 3 hrs post dosing plasma glucose levels were measured with Glucometer Immediately animals were provided with measured amount of feed.
Acute effect percent reduction in PG was calculated for each animal using the formula
{(0 hr PG−test hr PG)/0 hr PG}×100
(§4) Statistics were applied using One-Way ANOVA followed by Dunnett's test using sigma stat software.

Data set [3] deals with db/db mice. The data set can be described thus: Chronic effect (21 days) on plasma glucose 3 hrs post dosing in db/db mice. The data set is classed as in vivo. The following applies: for plasma glucose levels 3 hrs post dosing after 21 days treatment followed by administration on day 21 (in words): 300 mg/kg; for % Red PG, 21th day 3 hr post dosing / 21th day 3 hr post dosing PG: 21 days 300 mg/kg once daily, then dose; for 21th day 3 hr post dosing PG: Mean ± SEM. The protocol:
as §1, §2, §3
(§5) Animals were dosed daily at around 10 AM to 11 AM with corresponding test compounds/vehicle at a volume of 10 ml/kg of body weight. Body weight, water intake and food intake was measured daily. After 14 days treatment plasma profile (PG, TG & TC) was measured in 4 hrs fasted animals. On that day animals were dosed post bleeding after keeping feed at 4 PM. After 21 days treatment plasma profile (PG, TG & TC) was measured in 4 hrs fasted animals. After bleeding, animals were administered with test compounds/vehicle and plasma glucose was measured 3 hrs post dosing with Glucometer. Immediately animals were provided with feed.
(§6) The percent reduction in plasma profile parameters were calculated using the formula 1−(tt/tc)/bt/bc)×100; where tt: test day treated group mean value of the parameter; tc: test day control group mean value of the parameter; bc: Basal Control group mean value; bt: Basal treated group mean value.
as §4

Data set [4] concerns db/db mice. The data set can be described thus: Chronic effect on plasma profile (PG, TC, TG), 4 hrs fasted, before dosing, in db/db mice. To be noted: for 14th day PG / 14th day TC / 14th day TG: 14 days 300 mg/kg once daily per oral, pre dosing; for 14th day PG / 14th day TC / 14th day TG / 21st day PG / 21st day TC / 21st day TG: 4 hr fasting; for % Red PG, 14th day / % Red TC, 14th day / % Red TG, 14th day: 14 days 300 mg/kg once daily; for % Red PG, 14th day / % Red TC, 14th day / % Red TG, 14th day / % Red PG, 21st day: adjusted for control and basal; for 21st day PG / 21st day TC / 21st day TG: 21 days 300 mg/kg once daily per oral, predosing; for % Red PG, 21st day / % Red TC (plasma cholesterol), 21st day / % Red TG (plasma triglyceride), 21st day: 21 days 300 mg/kg once daily; for % Red TC (plasma cholesterol), 21st day / % Red TG (plasma triglyceride), 21st day: post 4 hrs fasting, without dosing on the day; for Basal PG / Basal TC / Basal TG: 4 hrs fasted, before treatment, Mean ± SEM; for 4 hrs fasting plasma glucose levels after 21 days treatment (in words): chronic treatment 21 days, 300 mg/kg. The data set is classed as in vivo. As to the method: as §1, §2, §3, §5
(§7) Blood samples from r.o.p bleeding were collected in micro centrifuge tubes containing 5 ul of EDTA Na ([…]). Plasma separated by centrifuging blood samples at 6000 rpm at 40 C for 5 minutes. Plasma glucose, total cholesterol and triglyceride were measured using Dade Bhering auto analyser. Plasma insulin was measured (in duplicate samples), using Millipore mouse/rat insulin ELISA kit.
as §6, §4

Data set [5] is described as follows: Chronic effect on body weight in db/db mice. The data set is classed as in vivo. The following applies: Mean ± SEM; for Final day Body weight: after 21 days 300 mg/kg once daily; for % Increase in body weight: basal to final day. As to the method:
as §3, §5, §4

In data set [6] the test system is db/db mice. As to the kind of experiment: Chronic effect on plasma insulin levels in db/db mice. More on the design: % Reduction in plasma insulin / % Reduction@ in plasma insulin: concentration or dose not given beside the values. The data set is classed as in vivo. To be noted: for % Reduction@ in plasma insulin: 21th day, calculated after adjusting for control group change; for 21th day insulin: 21 days 300 mg/kg once daily, 4 hr fasting, predosing; for % Reduction in plasma insulin: basal vs 21th day; for % Reduction in plasma insulin / Basal insulin: Mean ± SEM; for Basal insulin: before treatment. As to the method: as §2, §3, §5, §7, §6, §4

For data set [7] the following is noted: water. The protocol:
The compounds disclosed herein are finely ground and passed through standard mesh filter and particles with 75-180 micron, and are tested for their solubility and dissolution profile.
The solubility studies for co-crystals and salts were performed according to Higuchi and Connor's method with some variations. Excess amounts (100 mg) of the samples were suspended in 10 mL of water in round bottom flask. Solutions were stirred at 300 rpm using a magnetic stirrer. After 72 h, the suspensions were filtered through a paper filter (Whatman 40)) and filtered aliquots were sufficiently diluted, the absorbance of the samples were measured at 232 nm and the values were normalized for API. […] A standard graph was made by measuring the absorbance of varied concentrations of API in water using a UV spectrophotometer (Nanodrop UV/vis spectrometer) at λmax 232 nm.

Data set [8] in a line: Stability of the co-crystal.

As for `Oc1ccc(C=Cc2cc(O)cc(O)c2)cc1` [resveratrol], in data set [1], the AMPK phosphorylation result is recorded as “increased”.

Turning to `CN(C)C(=N)N=C(N)N` [ILB-MCO-0906Q, Metformin hydrochloride], in the data set with db/db mice [2], the “% Reduction in plasma glucose (acute)” value amounted to 52 ± 4 %, the “3 Hr plasma glucose” value turned out to be 181 ± 25 mg/dL and the “0 Hr plasma glucose” value is 373 ± 43 mg/dL. The “plasma glucose levels 3 hrs post dosing with single dose (in words)” value in the data set on db/db mice [2] (hydrochloride) was “Significant lowering; also recorded: significant reduction”. Also, the “plasma glucose levels 3 hrs post dosing after 21 days treatment followed by administration on day 21 (in words)” value in the data set on db/db mice [3] (hydrochloride) is “significant lowering; also recorded: significant reduction”. In the data set with db/db mice [3], the “% Red PG, 21th day 3 hr post dosing” value amounted to 44% and the “21th day 3 hr post dosing PG” value is 200 ± 31 mg/dL. For the same molecule, in the data set on db/db mice [4], the “14th day PG” value was 443.33 ± 40.27 mg/dL; the “14th day TC” value stood at 144.51 ± 4.61 mg/dL; the “14th day TG” value is 114.11 ± 4.76 mg/dL; the “% Red PG, 14th day” value is on record as 3%. For the same molecule, in the data set on db/db mice [4], the “% Red TC, 14th day” value was 6%; the “% Red TG, 14th day” value came out at 17%; the “21st day PG” value came out at 400.80 ± 42.77 mg/dL; the “21st day TC” value amounted to 157.86 ± 8.76 mg/dL. In the data set with db/db mice [4], the “21st day TG” value is 127.00 ± 5.65 mg/dL; the “% Red PG, 21st day” value is reported as 7%; the “% Red TC (plasma cholesterol), 21st day” value is reported as 11%; the “% Red TG (plasma triglyceride), 21st day” value is listed as 28%. Further, in the data set with db/db mice [4], the “Basal PG” value was determined as 402.43 ± 26.13 mg/dL, the “Basal TC” value was 155.90 ± 5.08 mg/dL, the “Basal TG” value was 136.10 ± 5.39 mg/dL and the “4 hrs fasting plasma glucose levels after 21 days treatment (in words)” value is listed as “did not show significant reduction”. In data set [5], the Final day Body weight was determined as 45.1 ± 0.6 g, the “% Increase in body weight” value amounted to 14.5 ± 0.9% and the Basal Body weight was 38.5 ± 0.5 g. In addition, in the data set on db/db mice [6], the “% Reduction@ in plasma insulin” value is given as 28%, the 21th day insulin was 3.82 ± 0.72 ng/mL, the “% Reduction in plasma insulin” value came to 15.32 ± 7.16% and the Basal insulin stood at 4.42 ± 0.63 ng/mL.

Take `CN(C)C(=N)NC(=N)N.CN(C)C(=N)NC(=N)N.O.O.O=c1c(O)c(-c2ccc(O)c(O)c2)oc2cc(O)cc(O)c12` [ILB-MCO-0905Q, Quercetin dihydrate+Metformin free base co-crystal (1:2)]: in data set [7] (listed as Quercetin dihydrate-Metformin co-crystal), the “solubility compared with the parent molecule Quercetin” value is recorded as “substantially improved”. In data set [7] (listed as Quercetin dihydrate-Metformin co-crystals), the “solubility compared with the parent molecule Quercetin” value is “greater than the parent molecule”. Besides, in the data set on db/db mice [2], the “% Reduction in plasma glucose (acute)” value is reported as 48 ± 4 %, the “3 Hr plasma glucose” value is 186 ± 21 mg/dL, the “0 Hr plasma glucose” value worked out at 358 ± 34 mg/dL and the “plasma glucose levels 3 hrs post dosing with single dose (in words)” value is “Significant lowering; also recorded: significant reduction”. In the data set with db/db mice [3], the “plasma glucose levels 3 hrs post dosing after 21 days treatment followed by administration on day 21 (in words)” value was “significant lowering; also recorded: significant reduction”; the “% Red PG, 21th day 3 hr post dosing” value was 38%; the “21th day 3 hr post dosing PG” value turned out to be 225 ± 33 mg/dL. Further, in the data set on db/db mice [4], the “14th day PG” value came out at 417.71 ± 37.85 mg/dL; the “14th day TC” value is 153.68 ± 3.49 mg/dL; the “14th day TG” value stood at 126.70 ± 6.25 mg/dL; the “% Red PG, 14th day” value was found to be 8%. For the same molecule, in the data set on db/db mice [4], the “% Red TC, 14th day” value came to 2%; the “% Red TG, 14th day” value worked out at 8%; the “21st day PG” value worked out at 368.96 ± 32.95 mg/dL; the “21st day TC” value stood at 160.25 ± 4.29 mg/dL. In the data set with db/db mice [4], the “21st day TG” value came out at 129.66 ± 5.38 mg/dL; the “% Red PG, 21st day” value was determined as 14%; the “% Red TC (plasma cholesterol), 21st day” value amounted to 13%; the “% Red TG (plasma triglyceride), 21st day” value came out at 27%. In the data set on db/db mice [4], the “Basal PG” value was 399.40 ± 26.54 mg/dL, the “Basal TC” value came to 160.42 ± 3.77 mg/dL, the “Basal TG” value is 135.94 ± 6.92 mg/dL and the “4 hrs fasting plasma glucose levels after 21 days treatment (in words)” value is recorded as “did not show significant reduction”. Further, the “stability under accelerated conditions” value in data set [8] (accelerated conditions) is listed as “stable”. Also, the “stability monitored once in seven days for 3 months” value in data set [8] (desiccated conditions) is reported as “stable”. Also, the hygroscopicity entry in data set [8] (normal conditions) is recorded as “hygroscopic”. In addition, in data set [5], the Final day Body weight amounted to 43.7 ± 1 g, the “% Increase in body weight” value is listed as 10.1 ± 2.5% and the Basal Body weight was 39.2 ± 0.8 g. Besides, in the data set on db/db mice [6], the “% Reduction@ in plasma insulin” value was 45%, the 21th day insulin is 3.03 ± 0.42 ng/mL, the “% Reduction in plasma insulin” value stood at 30.56 ± 8.10 % and the Basal insulin is 4.55 ± 0.50 ng/mL. Further, the “plasma insulin levels after 21 days treatment (in words)” value in the data set with db/db mice [6] (21 days, 300 mg/kg, compared to control group) is “significant reduction”.

Source of the values: patent US20120258170A1, “PHARMACEUTICAL CO-CRYSTALS OF QUERCETIN” (Nutracryst Therapeutics Private Limited, priority 2009, published 2012).
